Measurements as given in patent US7608625B2, “Method for treating bruxism and bruxism-related diseases” (Eisai R & D Management Co., Ltd., priority 2003, dated 2009).
Where a name gives a salt, the structure may show the parent alone.

Legend:
[1] = tested on: bruxism patient; test: Frequency of bruxism episodes during sleep in bruxism patients, placebo, PPI, H2RA or the combination (Experiment 3, double-blind); format: in vivo, human; conditions: FIG. 3; bruxism patients n=9; 10 mg of each drug; 4-hour period between 1 and 5 hours after falling asleep; vs placebo; paired t test, P<0.05 significant
Protocol: A catheter with a pH electrode was inserted into the test subject's esophagus 5 cm above the upper portion of the lower esophageal sphincter and pH was measured while the subject was asleep, while a disposable (bipolar) electrode was affixed to the skin at the front of the temporal muscle on one side. An amount of muscle activity during sleep was measured from 2.5 hours after falling asleep for a 40-minute period. At the same time, video and sound recordings were made that confirmed bruxism during sleep. […] In this Figure, when stable pH levels in the esophagus declined sharply, this was defined as an “decreased esophageal pH episode”. […] According to the methods used in experiment 1, the amount of muscle activity during sleep in the front of the temporal muscle on one side was measured for a 4-hour period between 1 and 5 hours after falling asleep. […]

[2] = tested on: bruxism patient; test: Temporal muscle activity during sleep in bruxism patients, placebo or proton pump inhibitor (Experiment 2, double-blind); format: in vivo, human; conditions: 10 mg
Protocol: A catheter with a pH electrode was inserted into the test subject's esophagus 5 cm above the upper portion of the lower esophageal sphincter and pH was measured while the subject was asleep, while a disposable (bipolar) electrode was affixed to the skin at the front of the temporal muscle on one side. An amount of muscle activity during sleep was measured from 2.5 hours after falling asleep for a 40-minute period. At the same time, video and sound recordings were made that confirmed bruxism during sleep. […] In this Figure, when stable pH levels in the esophagus declined sharply, this was defined as an “decreased esophageal pH episode”. Measurement of temporal muscle activity during sleep in the bruxsim patient medicated with placebo or the proton pump inhibitor In a double-blind trial, test subjects were assigned to either medication with placebo or the proton pump inhibitor [sodium salt of rabeprazole (10 mg; brand name: […] (registered trademark), Eisai Co., Ltd.)] and, according to the method used in experiment 1, the amount of muscle activity during sleep in the front of the temporal muscle on one side was measured for a 4-hour period between 1 and 5 hours after falling asleep. Video and sound recordings were made at the same time that confirmed bruxism during sleep. […] A paired t test was used to test for significance, with P<0.05 defined as indicating a statistically significant difference.

COCCCOc1ccnc(C[S+]([O-])c2nc3ccccc3[nH]2)c1C (stereo not shown) [proton pump inhibitor, sodium salt of rabeprazole]
frequency of bruxism episodes per hour of sleep [1]: significant reduction
frequency of jaw motion accompanying rhythmical temporal muscle activity (bruxism episode) ([2]; FIG. 2(A), one bruxism patient, 4-hour period between 1 and 5 hours after falling asleep, compared to placebo): substantial decline
frequency of bruxism episodes per hour of sleep ([2]; FIG. 2(B), bruxism patients n=8, vs placebo, paired t test, ****P<0.0001): significantly reduces
duration of bruxism episodes per hour of sleep ([2]; FIG. 2(B), bruxism patients n=8, vs placebo, paired t test, ***P<0.001): significantly reduces
